The subject of this assay is Aplysia californica. It counts as in vivo.

As to `NCC(O)c1ccc(O)cc1` (stereo not shown) [octopamine], the “Behavior vs saline-injected control” value (in vivo) was “did not alter A. californica behavior significantly different from control”.

`NCCc1c[nH]c2ccc(O)cc12` [serotonin]: under “in vivo”, the Behavioral phenotype entry is listed as “notable inability of the animal's foot to completely stick to the tank wall, resulting in impaired locomotion” and the “Onset of behavioral phenotype after injection” value is on record as at most 1 min. Besides, the Locomotion entry (n = 3) is “immediate hyperlocomotive phenotype”.

For the origin of these results see PMC11568388 (Molecular Biology and Evolution, 2024).
